This data set in a line: recombinant UMI read abundance after kanamycin selection (control-corrected) (log10(CPM+1)); higher = more efficient recombination; extreme values may be limits of the assay; sequences stand for … in AGTGCAGAGAAAATCGGCCAGTTTTCTCTGCCTGCAGTCCGCATGCCGTGGGACCCCTTGGGTTCTAACCTGTTGCCTAGATTTATGCAGCGGACTGCCTTTCTCCCAAAGTGATAAACCGG…AGGTTGGTTTCACT; site = the 11-nt donor. An outline of the steps:
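For the IS621 bridge recombinase, a pooled Escherichia coli screen tested donor and donor-binding-loop pairs. Cells received the pair library together with a target plasmid encoding a fixed target and T7-inducible recombinase, then went onto IPTG (0.07 mM) plus kanamycin or unselected plates in duplicate. After PCR across the donor–target junction and sequencing, recombinant UMI counts were normalized to CPM, averaged, and scaled by control-derived factors. Each value is given as log10(CPM+1).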
For “TATAGCGCATGGACCGGTTTTCCCGGTAATCCGTATTTGTG (site TATAGCGCTCA)”, the “recombinant UMI read abundance (log10)” value was determined as 0.205.

Regarding “TATAGGACATGGACCGGTTTTCCCGGTAATCCGTATTTGAT (site TATAGGACTAT)”, the “recombinant UMI read abundance (log10)” value is 1.11.

Regarding “TATATGGCATGGACCGGTTTTCCCGGTAATCCGTATTTGTG (site TATATGGCTCA)”, the “recombinant UMI read abundance (log10)” value turned out to be 0.368.

“TATATGGCATGGACCGGTTTTCCCGGTAATCCGTATTTGTG (site TATCTGGCTCA)”: the “recombinant UMI read abundance (log10)” value is 0.00271.

Regarding “TATATGGCATGGACCGGTTTTCCCGGTAATCCGTATTTGTG (site TATGTGGCTCA)”, the “recombinant UMI read abundance (log10)” value came to 0.00727.

In the case of “TATATGGCATGGACCGGTTTTCCCGGTAATCCGTATTTGTG (site TATTTGGCTCA)”, the “recombinant UMI read abundance (log10)” value was determined as 0.0941.

Consider “TATATTGCATGGACCGGTTTTCCCGGTAATCCGTATTTGTC (site TATATTGCTGA)”, for which the “recombinant UMI read abundance (log10)” value was determined as 0.

For “TATCCCGCATGGACCGGTTTTCCCGGTAATCCGTATTTGCC (site TATCCCGCTGG)”, the “recombinant UMI read abundance (log10)” value is 1.79.

With “TATCCTGCATGGACCGGTTTTCCCGGTAATCCGTATTTGAC (site TATCCTGCTGT)”, the “recombinant UMI read abundance (log10)” value is 0.

As to “TATCGAACATGGACCGGTTTTCCCGGTAATCCGTATTTGTT (site TATCGAACTAA)”, the “recombinant UMI read abundance (log10)” value turned out to be 0.00888.

For the sequence “TATCTCACATGGACCGGTTTTCCCGGTAATCCGTATTTGAC (site TATCTCACTGT)”, the “recombinant UMI read abundance (log10)” value is 2.11.

Turning to “TATCTTTCATGGACCGGTTTTCCCGGTAATCCGTATTTGAT (site TATCTTTCTAT)”, the “recombinant UMI read abundance (log10)” value was determined as 0.

As to “TATGCCACATGGACCGGTTTTCCCGGTAATCCGTATTTGTA (site TATGCCACTTA)”, the “recombinant UMI read abundance (log10)” value came to 0.598.

On to “TATGGCCCATGGACCGGTTTTCCCGGTAATCCGTATTTGAT (site TATGGCCCTAT)”, for which the “recombinant UMI read abundance (log10)” value was found to be 0.0149.

For the sequence “TATGTAGCATGGACCGGTTTTCCCGGTAATCCGTATTTGTT (site TATGTAGCTAA)”, the “recombinant UMI read abundance (log10)” value was 1.23.

As to “TATTCAACATGGACCGGTTTTCCCGGTAATCCGTATTTGCA (site GGGAACGCTAA)”, the “recombinant UMI read abundance (log10)” value was determined as 0.00333.

As for “TATTCAACATGGACCGGTTTTCCCGGTAATCCGTATTTGTG (site TATTCAACTCA)”, the “recombinant UMI read abundance (log10)” value was found to be 0.011.

Regarding “TATTGAGCATGGACCGGTTTTCCCGGTAATCCGTATTTGGG (site TAATGAGCTCC)”, the “recombinant UMI read abundance (log10)” value turned out to be 0.0665.

“TATTGAGCATGGACCGGTTTTCCCGGTAATCCGTATTTGGG (site TACTGAGCTCC)”: the “recombinant UMI read abundance (log10)” value came to 0.0155.

As for “TATTGAGCATGGACCGGTTTTCCCGGTAATCCGTATTTGGG (site TAGTGAGCTCC)”, the “recombinant UMI read abundance (log10)” value was found to be 0.0187.

For the sequence “TATTGAGCATGGACCGGTTTTCCCGGTAATCCGTATTTGGG (site TATTGAGCTCC)”, the “recombinant UMI read abundance (log10)” value turned out to be 0.

For the sequence “TATTGATCATGGACCGGTTTTCCCGGTAATCCGTATTTGTG (site TATTGATCTCA)”, the “recombinant UMI read abundance (log10)” value came to 0.805.

For “TATTGTTCATGGACCGGTTTTCCCGGTAATCCGTATTTGTG (site TATTGTTCTCA)”, the “recombinant UMI read abundance (log10)” value stood at 0.00773.

Take “TATTTGACATGGACCGGTTTTCCCGGTAATCCGTATTTGCT (site TAATTGACTAG)”: the “recombinant UMI read abundance (log10)” value amounted to 1.9.

For the sequence “TATTTGACATGGACCGGTTTTCCCGGTAATCCGTATTTGCT (site TACTTGACTAG)”, the “recombinant UMI read abundance (log10)” value worked out at 0.882.

As to “TATTTGACATGGACCGGTTTTCCCGGTAATCCGTATTTGCT (site TAGTTGACTAG)”, the “recombinant UMI read abundance (log10)” value amounted to 0.852.

On to “TATTTGACATGGACCGGTTTTCCCGGTAATCCGTATTTGCT (site TATTTGACTAG)”, for which the “recombinant UMI read abundance (log10)” value came out at 2.54.

As for “TATTTGACATGGACCGGTTTTCCCGGTAATCCGTATTTGTG (site TATTTGACTCA)”, the “recombinant UMI read abundance (log10)” value is 0.0179.

Turning to “TATTTGACATGGACCGGTTTTCCCGGTAATCCGTATTTGTG (site TATTTGCCTCA)”, the “recombinant UMI read abundance (log10)” value stood at 0.00551.

Consider “TATTTGACATGGACCGGTTTTCCCGGTAATCCGTATTTGTG (site TATTTGGCTCA)”, for which the “recombinant UMI read abundance (log10)” value came out at 0.00542.

Consider “TATTTGACATGGACCGGTTTTCCCGGTAATCCGTATTTGTG (site TATTTGTCTCA)”, for which the “recombinant UMI read abundance (log10)” value came out at 0.0134.

As to “TCAAACTCATGGACCGGTTTTCCCGGTAATCCGTATTTGCA (site TCAAACTCTTG)”, the “recombinant UMI read abundance (log10)” value came out at 1.55.

Turning to “TCAAACTCATGGACCGGTTTTCCCGGTAATCCGTATTTGCA (site TCACACTCTTG)”, the “recombinant UMI read abundance (log10)” value amounted to 1.25.

For the sequence “TCAAACTCATGGACCGGTTTTCCCGGTAATCCGTATTTGCA (site TCAGACTCTTG)”, the “recombinant UMI read abundance (log10)” value worked out at 0.

As to “TCAAACTCATGGACCGGTTTTCCCGGTAATCCGTATTTGCA (site TCATACTCTTG)”, the “recombinant UMI read abundance (log10)” value came out at 1.92.

Regarding “TCAAAGCCATGGACCGGTTTTCCCGGTAATCCGTATTTGAT (site TCAAAGCCTAT)”, the “recombinant UMI read abundance (log10)” value turned out to be 0.324.

As for “TCAACCCCATGGACCGGTTTTCCCGGTAATCCGTATTTGTG (site TCAACCCCTCA)”, the “recombinant UMI read abundance (log10)” value was 0.00442.

As to “TCAAGTTCATGGACCGGTTTTCCCGGTAATCCGTATTTGTC (site TCAAGTTCTGA)”, the “recombinant UMI read abundance (log10)” value was found to be 2.

As for “TCAATCTCATGGACCGGTTTTCCCGGTAATCCGTATTTGGT (site TCAATCTCTAC)”, the “recombinant UMI read abundance (log10)” value was determined as 1.11.

On to “TCAATTGCATGGACCGGTTTTCCCGGTAATCCGTATTTGCG (site TCAATTGCTCG)”, for which the “recombinant UMI read abundance (log10)” value amounted to 1.52.

With “TCACCGCCATGGACCGGTTTTCCCGGTAATCCGTATTTGGG (site TCACCGCCTCC)”, the “recombinant UMI read abundance (log10)” value came to 0.0301.

Take “TCACCTTCATGGACCGGTTTTCCCGGTAATCCGTATTTGTT (site TCACCTTCTAA)”: the “recombinant UMI read abundance (log10)” value stood at 0.00377.

On to “TCACGACCATGGACCGGTTTTCCCGGTAATCCGTATTTGCT (site TCACGACCTAG)”, for which the “recombinant UMI read abundance (log10)” value is 0.

Take “TCACGAGCATGGACCGGTTTTCCCGGTAATCCGTATTTGCC (site TCACGAGCTGG)”: the “recombinant UMI read abundance (log10)” value is 0.952.

Turning to “TCACGCGCATGGACCGGTTTTCCCGGTAATCCGTATTTGAA (site TCACGCGCTTT)”, the “recombinant UMI read abundance (log10)” value came to 1.05.

With “TCAGAATCATGGACCGGTTTTCCCGGTAATCCGTATTTGCG (site TCAGAATCTCG)”, the “recombinant UMI read abundance (log10)” value was 2.57.

As to “TCAGATACATGGACCGGTTTTCCCGGTAATCCGTATTTGCG (site TCAGAAACTCG)”, the “recombinant UMI read abundance (log10)” value amounted to 0.

Take “TCAGATACATGGACCGGTTTTCCCGGTAATCCGTATTTGCG (site TCAGACACTCG)”: the “recombinant UMI read abundance (log10)” value amounted to 0.812.

For the sequence “TCAGATACATGGACCGGTTTTCCCGGTAATCCGTATTTGCG (site TCAGAGACTCG)”, the “recombinant UMI read abundance (log10)” value came to 0.00723.

Turning to “TCAGATACATGGACCGGTTTTCCCGGTAATCCGTATTTGCG (site TCAGATACTCG)”, the “recombinant UMI read abundance (log10)” value was determined as 1.33.

For the sequence “TCAGCTACATGGACCGGTTTTCCCGGTAATCCGTATTTGAG (site TCAGCTACTCT)”, the “recombinant UMI read abundance (log10)” value worked out at 0.878.

As to “TCAGCTCCATGGACCGGTTTTCCCGGTAATCCGTATTTGGC (site TCAGCTCCTGC)”, the “recombinant UMI read abundance (log10)” value came out at 0.823.

Take “TCAGGCGCATGGACCGGTTTTCCCGGTAATCCGTATTTGGT (site TCAGGCGCTAC)”: the “recombinant UMI read abundance (log10)” value amounted to 0.385.

For “TCAGGTCCATGGACCGGTTTTCCCGGTAATCCGTATTTGAT (site TCAGGTCCTAT)”, the “recombinant UMI read abundance (log10)” value was determined as 1.68.

Consider “TCAGTGTCATGGACCGGTTTTCCCGGTAATCCGTATTTGCT (site TCAGTGTCTAG)”, for which the “recombinant UMI read abundance (log10)” value is 2.58.

For “TCATAATCATGGACCGGTTTTCCCGGTAATCCGTATTTGCA (site TCATAATCTTG)”, the “recombinant UMI read abundance (log10)” value came out at 2.3.

As for “TCATAATCATGGACCGGTTTTCCCGGTAATCCGTATTTGCA (site TCATACTCTTG)”, the “recombinant UMI read abundance (log10)” value came to 0.606.

With “TCATAATCATGGACCGGTTTTCCCGGTAATCCGTATTTGCA (site TCATAGTCTTG)”, the “recombinant UMI read abundance (log10)” value is 1.06.

In the case of “TCATAATCATGGACCGGTTTTCCCGGTAATCCGTATTTGCA (site TCATATTCTTG)”, the “recombinant UMI read abundance (log10)” value was 0.925.

As to “TCATACTCATGGACCGGTTTTCCCGGTAATCCGTATTTGAA (site TCATACTCTTA)”, the “recombinant UMI read abundance (log10)” value worked out at 0.

Turning to “TCATACTCATGGACCGGTTTTCCCGGTAATCCGTATTTGAA (site TCATACTCTTC)”, the “recombinant UMI read abundance (log10)” value was determined as 0.0134.

Take “TCATACTCATGGACCGGTTTTCCCGGTAATCCGTATTTGAA (site TCATACTCTTG)”: the “recombinant UMI read abundance (log10)” value was 0.

Turning to “TCATACTCATGGACCGGTTTTCCCGGTAATCCGTATTTGAA (site TCATACTCTTT)”, the “recombinant UMI read abundance (log10)” value amounted to 1.72.

“TCATATTCATGGACCGGTTTTCCCGGTAATCCGTATTTGCA (site TCATAATCTTG)”: the “recombinant UMI read abundance (log10)” value came to 1.5.

Take “TCATATTCATGGACCGGTTTTCCCGGTAATCCGTATTTGCA (site TCATACTCTTG)”: the “recombinant UMI read abundance (log10)” value came to 1.3.

With “TCATATTCATGGACCGGTTTTCCCGGTAATCCGTATTTGCA (site TCATAGTCTTG)”, the “recombinant UMI read abundance (log10)” value is 0.00995.

In the case of “TCATATTCATGGACCGGTTTTCCCGGTAATCCGTATTTGCA (site TCATATTCTTG)”, the “recombinant UMI read abundance (log10)” value came out at 0.476.

Turning to “TCATCAACATGGACCGGTTTTCCCGGTAATCCGTATTTGGT (site TCATCAACTAC)”, the “recombinant UMI read abundance (log10)” value worked out at 0.0136.

The values are drawn from the supplement of paper PMC11208160.
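Also: IS621 bridge recombinase in Escherichia coli cells against a fixed T5 target plasmid.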
